Experimental data reported in ChEMBL document CHEMBL4354827, “Discovery of Novel, Potent, Brain-Permeable, and Orally Efficacious Positive Allosteric Modulator of α7 Nicotinic Acetylcholine Receptor [4-(5-(4-Chlorophenyl)-4-methyl-2-propionylthiophen-3-yl)benzenesulfonamide]: Structure-Activity Relationship and Preclinical Characterization” (J Med Chem, 2020).

Experiments:
Rattus norvegicus [1] = assay: Memory enhancement effect in time-delay induced Wistar rat model of amnesia assessed as exploration time for object1 at 1 mg/kg, po administered as single dose after acquisition trial by novel object recognition test (reference value: 19.09 sec); format: functional
Rattus norvegicus [2] = assay: Memory enhancement effect in scopolamine-induced Wistar rat model of amnesia assessed as exploration time for object1 in acquisition trial at 0.05 mg/kg, po for 7 days and measured on day 8 by novel object recognition test (reference value: 16.11 sec); format: functional
Rattus norvegicus [3] = assay: Memory enhancement effect in scopolamine-induced Wistar rat model of amnesia assessed as exploration time for familiar object in retention trial at 0.05 mg/kg, po administered as single dose and measured on day 9 by novel object recognition test (reference value: 8.59 sec); format: functional
[4] = Drug level in Sprague-Dawley rat plasma at 0.15 mg/kg, po for 7 days; format: ADME, organism-based
Rattus norvegicus [5] = assay: Memory enhancement effect in scopolamine-induced Wistar rat model of amnesia assessed as exploration time for familiar object in retention trial at 0.15 mg/kg, po for 7 days and measured on day 8 by novel object recognition test (reference value: 8.59 sec); format: functional
Rattus norvegicus [6] = assay: Memory enhancement effect in time-delay induced Wistar rat model of amnesia assessed as exploration time for familiar object at 3 mg/kg, po administered as single dose after acquisition trial by novel object recognition test (reference value: 10.6 sec); format: functional
[7] = Drug metabolism in monkey liver microsomes assessed as metabolic rate at 1 uM preincubated for 5 mins followed by NADPH addition after 30 mins by LC-MS/MS analysis; format: ADME, Macaca mulatta, Microsome; conditions: rhesus monkey, 0.5 h
Rattus norvegicus [8] = assay: Memory enhancement effect in time-delay induced Wistar rat model of amnesia assessed as exploration time for object1 in acquisition trial at 0.05 mg/kg, po for 7 days and measured on day 8 by novel object recognition test (reference value: 13.73 sec); format: functional
[9] = Protein binding in dog plasma at 5 uM incubated for 16 hrs under shaking condition by LC/MS/MS based rapid equilibrium dialysis method; format: ADME, cell-free, Canis lupus familiaris; conditions: read-out: PPB (converted)
[10] = Drug level in Wistar rat plasma at 0.15 mg/kg, po; format: ADME, organism-based; conditions: in vivo
[11] = Metabolic stability in human pooled liver microsomes assessed as compound remaining at 1 uM preincubated for 5 mins followed by NADPH addition and measured after 30 mins by LC-MS/MS analysis; format: ADME, Microsome; conditions: read-out: Stability
Rattus norvegicus [12] = assay: Memory enhancement effect in time-delay induced Wistar rat model of amnesia assessed as increase in novel object discrimination at 1 mg/kg, po administered as single dose after acquisition trial by novel object recognition test (reference value: 0.08); format: functional
[13] = Clearance in Wistar rat at 1 mg/kg, iv after 0.083 to 144 hrs by LC-MS/MS analysis; format: ADME, organism-based; conditions: in vivo
Rattus norvegicus [14] = assay: Memory enhancement effect in time-delay induced Wistar rat model of amnesia assessed as increase in novel object discrimination index at 3 mg/kg, po administered as single dose and measured on day 9 by novel object recognition test (reference value: 0.03); format: functional
Rattus norvegicus [15] = assay: Memory enhancement effect in time-delay induced Wistar rat model of amnesia assessed as increase in discrimination index at 0.05 mg/kg, po for 7 days and measured on day 8 by novel object recognition test (reference value: 0.12); format: functional
[16] = Cmax in BALB/c mouse at 1 mg/kg, iv after 0.083 to 144 hrs by LC-MS/MS analysis; format: ADME, organism-based; design: dose 1 mg/kg, route intravenous; conditions: in vivo
[17] = Drug concentration in Wistar rat brain at 10 mg/kg, po after 4 hrs by LC-MS/MS analysis; format: ADME, organism-based; conditions: read-out: Drug uptake
[18] = Half life in BALB/c mouse at 10 mg/kg, po after 0.25 to 144 hrs by LC-MS/MS analysis; format: ADME, organism-based; conditions: in vivo
Rattus norvegicus [19] = assay: Memory enhancement effect in scopolamine-induced Wistar rat model of amnesia assessed as exploration time for novel object in retention trial at 0.15 mg/kg, po for 7 days and measured on day 8 by novel object recognition test (reference value: 12.09 sec); format: functional
Rattus norvegicus [20] = assay: Memory enhancement effect in time-delay induced Wistar rat model of amnesia assessed as exploration time for familiar object at 1 mg/kg, po administered as single dose after acquisition trial by novel object recognition test (reference value: 10.6 sec); format: functional
Rattus norvegicus [21] = assay: Memory enhancement effect in scopolamine-induced Wistar rat model of amnesia assessed as increase in novel object discrimination index at 0.15 mg/kg, po administered as single dose and measured on day 9 by novel object recognition test (reference value: 0.21); format: functional
Rattus norvegicus [22] = assay: Improvement in social recognition scopolamine-induced Sprague-Dawley rat model of amnesia assessed as reduction in recognition index at 0.50 mg/kg, po for 7 days measured after 24 hrs (reference value: 0.93); format: functional
[23] = Protein binding in rat plasma assessed as unbound fraction at 5 uM incubated for 16 hrs under shaking condition by LC/MS/MS based rapid equilibrium dialysis method; format: ADME, cell-free
[24] = Drug level in scopolamine-induced Sprague-Dawley rat plasma at 0.5 mg/kg, po for 7 days; format: ADME, organism-based
[25] = Ratio of AUCt in brain to plasma in Wistar rat at 10 mg/kg, po after 144 hrs by LC-MS/MS analysis; format: ADME, organism-based
Cytochrome P450 1A2 = biological target: T1, Cytochrome P450 1A2 (Homo sapiens, UniProt P05177); assay: Inhibition of CYP1A2 (unknown origin) up to 10 uM; format: ADME
T1 sequence (P05177 whole entry): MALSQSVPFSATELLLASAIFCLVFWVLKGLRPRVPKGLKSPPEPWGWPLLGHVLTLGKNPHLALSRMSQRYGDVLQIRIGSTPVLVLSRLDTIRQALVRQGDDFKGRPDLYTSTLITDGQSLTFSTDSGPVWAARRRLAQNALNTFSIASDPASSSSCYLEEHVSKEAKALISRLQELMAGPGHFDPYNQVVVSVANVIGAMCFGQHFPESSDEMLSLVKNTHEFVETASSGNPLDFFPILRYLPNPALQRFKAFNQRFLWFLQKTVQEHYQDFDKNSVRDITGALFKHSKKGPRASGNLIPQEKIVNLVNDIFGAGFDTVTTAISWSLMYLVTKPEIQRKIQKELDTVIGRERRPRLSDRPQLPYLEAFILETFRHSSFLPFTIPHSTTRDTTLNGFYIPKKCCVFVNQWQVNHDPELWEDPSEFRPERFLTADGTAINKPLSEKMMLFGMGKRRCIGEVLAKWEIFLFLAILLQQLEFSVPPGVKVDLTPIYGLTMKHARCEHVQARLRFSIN

[26] = Tmax in Beagle dog at 1 mg/kg, iv after 0.083 to 144 hrs by LC-MS/MS analysis; format: ADME, organism-based, Canis lupus familiaris; conditions: in vivo
Rattus norvegicus [27] = assay: Memory enhancement effect in time-delay induced Wistar rat model of amnesia assessed as exploration time for familiar object in retention trial at 0.15 mg/kg, po for 7 days and measured on day 8 by novel object recognition test (reference value: 10.20 sec); format: functional
Rattus norvegicus [28] = assay: Memory enhancement effect in time-delay induced Wistar rat model of amnesia assessed as exploration time for object2 in acquisition trial at 3 mg/kg, po administered as single dose and measured on day 8 by novel object recognition test (reference value: 16.33 sec); format: functional

CCC(=O)c1sc(-c2ccc(Cl)cc2)c(C)c1-c1ccc(S(N)(=O)=O)cc1
Time (Rattus norvegicus [1]): 20.6 s | Time (Rattus norvegicus [2]): 16.07 s | Time (Rattus norvegicus [3]): 8.03 s | concentration at 168 h [4]: 320 nM | Time (Rattus norvegicus [5]): 4.86 s | Time (Rattus norvegicus [6]): 5.9 s | Drug metabolism [7]: 0.03 nmol/min/mg | Time (Rattus norvegicus [8]): 15.2 s | fraction unbound at 16 h, 5 µM [9]: 0.0031 | concentration [10]: 70 nM | remaining at 0.5 h, 1 µM [11]: 90% | Activity_index (Rattus norvegicus [12]): 0.38 | clearance [13]: 1.3 mL/min/kg | Activity_index (Rattus norvegicus [14]): 0.48 | Activity_index (Rattus norvegicus [15]): 0.27 | Cmax [16]: 900 nM | concentration at 4 h [17]: 9220 nM | half-life [18]: 22 h | Time (Rattus norvegicus [19]): 12.8 s | Time (Rattus norvegicus [20]): 11.94 s | Activity_index (Rattus norvegicus [21]): 0.5 | Activity_index (Rattus norvegicus [22]): 0.75 | fraction unbound at 16 h, 5 µM [23]: 0.0058 | concentration at 168 h [24]: 580 nM | Kp at 144 h [25]: 9 | inhibition (INH) (Cytochrome P450 1A2): Not Active | Tmax [26]: 0.25 h | Time (Rattus norvegicus [27]): 3.79 s | Time (Rattus norvegicus [28]): 19.43 s
